Assay results: PubChem BioAssay AID248 (DTP/NCI, 2004)
Several values for one entry are separate records, joined by “and”; a condition that tells them apart may be missing. Equal values may be shown once. Toxic doses and inconclusive results are not listed.

Test system: L1210 leukemia ip in BDF1 mice, survival T/C
Experiment: NCI In Vivo Anticancer Drug Screen. Data for tumor model L1210 Leukemia (intraperitoneal) in B6D2F1 (BDF1) mice
Conditions: endpoint: mean survival time, higher = longer survival
Summary of the method: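 Read-out is survival time, reported as the treated-group measurement over the vehicle-control measurement.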

[1] = dose: 100.0 mg/kg/injection, schedule: Q01DX001 (ip), vehicle: saline
[2] = dose: 200.0 mg/kg/injection, schedule: Q01DX001 (ip), vehicle: saline

`c1ccc2c(c1)ccn1cnnc21` was tested, and the T/C (dose: 50.0 mg/kg/injection, schedule: Q01DX001 (ip), vehicle: saline) was 97 % of control, the T/C [1] was 101 % of control and the T/C [2] was 109 % of control.

In the case of `CCOC(=O)c1cnc(SC)nc1NCc1ccccc1C`, the T/C (dose: 100.0 mg/kg/injection, schedule: Q04DX003 (ip), vehicle: saline with Tween-80) is reported as 94 % of control, the T/C (dose: 200.0 mg/kg/injection, schedule: Q04DX003 (ip), vehicle: saline with Tween-80) is reported as 94 % of control and the T/C (dose: 400.0 mg/kg/injection, schedule: Q04DX003 (ip), vehicle: saline with Tween-80) is reported as 92 % of control.

With `Cc1cnc(C)c(OCCN2CC2)n1` the T/C [1] was 93 % of control.

`O=C(O)C1(Br)CC2CC1C1C2C2(Cl)C(Cl)=C(Cl)C1(Cl)C2(Cl)Cl` (centres undefined) was tested, and the T/C (dose: 75.0 mg/kg/injection, schedule: Q01DX001 (ip), vehicle: other) was 96 % of control, the T/C (dose: 150.0 mg/kg/injection, schedule: Q01DX001 (ip), vehicle: other) was 96 % of control and the T/C (dose: 300.0 mg/kg/injection, schedule: Q01DX001 (ip), vehicle: other) was 96 % of control.

In the case of `CN(Cc1cnc2nc(NCNC(=O)C3=C(O)[C@@]4(O)C(=O)C5=C(O)c6c(O)cccc6[C@@](C)(O)[C@H]5C[C@H]4[C@H](N(C)C)C3=O)nc(N)c2n1)c1ccc(C(=O)NC(CCC(=O)O)C(=O)O)cc1` (some centres undefined), the T/C (dose: 1.5 mg/kg/injection, schedule: Q01DX015 (ip), vehicle: saline) is reported as 213 % of control, the T/C (dose: 3.0 mg/kg/injection, schedule: Q01DX015 (ip), vehicle: saline) is reported as 219 % of control and the T/C (dose: 6.0 mg/kg/injection, schedule: Q01DX015 (ip), vehicle: saline) is reported as 163 % of control. For the same molecule, the T/C (dose: 12.0 mg/kg/injection, schedule: Q01DX015 (ip), vehicle: saline) was 107 % of control and the T/C (dose: 24.0 mg/kg/injection, schedule: Q01DX015 (ip), vehicle: saline) was 87 % of control.

For `N#C/C(=C\c1ccccn1)c1ccc(Cl)cc1`, the T/C (dose: 100.0 mg/kg/injection, schedule: Q01DX001 (ip), vehicle: other) was 95 % of control, the T/C (dose: 200.0 mg/kg/injection, schedule: Q01DX001 (ip), vehicle: other) was 92 % of control and the T/C (dose: 400.0 mg/kg/injection, schedule: Q01DX001 (ip), vehicle: other) was 94 % of control.

In the case of `Cc1ccc(C)c(/C(=N\N=C(N)N)C2CC2)c1`, the T/C (dose: 15.0 mg/kg/injection, schedule: Q01DX Z (ip), vehicle: methylcellulose (MC)) is reported as 103 % of control, the T/C (dose: 30.0 mg/kg/injection, schedule: Q01DX Z (ip), vehicle: methylcellulose (MC)) is reported as 99 % of control and the T/C (dose: 30.0 mg/kg/injection, schedule: Q01DX Z (oral), vehicle: methylcellulose (MC)) is reported as 103 % of control. The T/C (dose: 60.0 mg/kg/injection, schedule: Q01DX Z (ip), vehicle: methylcellulose (MC)) was 100 % of control, the T/C (dose: 60.0 mg/kg/injection, schedule: Q01DX Z (oral), vehicle: methylcellulose (MC)) was 94 % of control and the T/C (dose: 120.0 mg/kg/injection, schedule: Q01DX Z (oral), vehicle: methylcellulose (MC)) was 100 % of control.

In the case of `CC1CCCC/C1=N/NC(=O)c1ccccc1` (centres undefined), the T/C (dose: 50.0 mg/kg/injection, schedule: Q01DX009 (ip), vehicle: saline with Tween-80) is reported as 95 % of control, the T/C (dose: 100.0 mg/kg/injection, schedule: Q01DX009 (ip), vehicle: saline with Tween-80) is reported as 110 % of control and the T/C (dose: 200.0 mg/kg/injection, schedule: Q01DX009 (ip), vehicle: saline with Tween-80) is reported as 108 % of control.

In the case of `CC1(C)N=C(N)N=C(N)N1c1ccc(CCCC(=O)Nc2cccc(S(=O)(=O)F)c2)cc1`, the T/C [1] is reported as 105 % of control and 89 % of control and the T/C [2] is reported as 103 % of control.

For `c1cn[nH]c1`, the T/C (dose: 50.0 mg/kg/injection, schedule: Q01DX001 (ip), vehicle: carboxymethylcellulose (CMC)) was 96 % of control, the T/C (dose: 100.0 mg/kg/injection, schedule: Q01DX001 (ip), vehicle: carboxymethylcellulose (CMC)) was 100 % of control and the T/C (dose: 200.0 mg/kg/injection, schedule: Q01DX001 (ip), vehicle: carboxymethylcellulose (CMC)) was 96 % of control.

For `Clc1ccnc(NC2CCCCC2)c1`, the T/C [1] was 92 % of control, the T/C [2] was 98 % of control and the T/C (dose: 400.0 mg/kg/injection, schedule: Q01DX001 (ip), vehicle: saline) was 100 % of control.

`CN=NC(C)C` was tested, and the T/C (dose: 100.0 mg/kg/injection, schedule: Q01DX001 (ip), vehicle: saline with Tween-80) was 97 % of control, the T/C (dose: 200.0 mg/kg/injection, schedule: Q01DX001 (ip), vehicle: saline with Tween-80) was 107 % of control and the T/C (dose: 400.0 mg/kg/injection, schedule: Q01DX001 (ip), vehicle: saline with Tween-80) was 112 % of control.

`O=CN1CCN(c2ccccc2)CC1` was tested, and the T/C (dose: 100.0 mg/kg/injection, schedule: Q04DX002 (ip), vehicle: Klucel (hydroxypropylcellulose) (HPC)) was 97 % of control, the T/C (dose: 200.0 mg/kg/injection, schedule: Q04DX002 (ip), vehicle: Klucel (hydroxypropylcellulose) (HPC)) was 87 % of control and the T/C (dose: 400.0 mg/kg/injection, schedule: Q04DX002 (ip), vehicle: Klucel (hydroxypropylcellulose) (HPC)) was 91 % of control.

In the case of `CC(C(=O)c1ccccc1)C(O)(C(F)(F)Cl)C(F)(F)Cl` (centres undefined), the T/C (dose: 100.0 mg/kg/injection, schedule: Q04DX003 (ip), vehicle: Klucel (hydroxypropylcellulose) (HPC)) is reported as 91 % of control, the T/C (dose: 200.0 mg/kg/injection, schedule: Q04DX003 (ip), vehicle: Klucel (hydroxypropylcellulose) (HPC)) is reported as 91 % of control and the T/C (dose: 400.0 mg/kg/injection, schedule: Q04DX003 (ip), vehicle: Klucel (hydroxypropylcellulose) (HPC)) is reported as 91 % of control.
